Source: US20220144775A1, “HYDRAZIDE COMPOUND AND KINASE INHIBITOR” (NISSAN CHEMICAL CORPORATION, priority 2019, published 2022)

Tests used:
[1] = molecular target: T1, LATS1 (Homo sapiens, UniProt O95835); experiment: Kinase inhibitory activity against LATS1 (ADP quantification); assay type: biochemical; conditions: ATP 400 μM, read-out: kinase inhibitory rate; for inhibition at 0.1 µM: final concentration 100 nM; for inhibition at 1 µM: final concentration 1000 nM
T1 construct: purchased Carna Biosciences
T1 sequence (O95835 1-1130): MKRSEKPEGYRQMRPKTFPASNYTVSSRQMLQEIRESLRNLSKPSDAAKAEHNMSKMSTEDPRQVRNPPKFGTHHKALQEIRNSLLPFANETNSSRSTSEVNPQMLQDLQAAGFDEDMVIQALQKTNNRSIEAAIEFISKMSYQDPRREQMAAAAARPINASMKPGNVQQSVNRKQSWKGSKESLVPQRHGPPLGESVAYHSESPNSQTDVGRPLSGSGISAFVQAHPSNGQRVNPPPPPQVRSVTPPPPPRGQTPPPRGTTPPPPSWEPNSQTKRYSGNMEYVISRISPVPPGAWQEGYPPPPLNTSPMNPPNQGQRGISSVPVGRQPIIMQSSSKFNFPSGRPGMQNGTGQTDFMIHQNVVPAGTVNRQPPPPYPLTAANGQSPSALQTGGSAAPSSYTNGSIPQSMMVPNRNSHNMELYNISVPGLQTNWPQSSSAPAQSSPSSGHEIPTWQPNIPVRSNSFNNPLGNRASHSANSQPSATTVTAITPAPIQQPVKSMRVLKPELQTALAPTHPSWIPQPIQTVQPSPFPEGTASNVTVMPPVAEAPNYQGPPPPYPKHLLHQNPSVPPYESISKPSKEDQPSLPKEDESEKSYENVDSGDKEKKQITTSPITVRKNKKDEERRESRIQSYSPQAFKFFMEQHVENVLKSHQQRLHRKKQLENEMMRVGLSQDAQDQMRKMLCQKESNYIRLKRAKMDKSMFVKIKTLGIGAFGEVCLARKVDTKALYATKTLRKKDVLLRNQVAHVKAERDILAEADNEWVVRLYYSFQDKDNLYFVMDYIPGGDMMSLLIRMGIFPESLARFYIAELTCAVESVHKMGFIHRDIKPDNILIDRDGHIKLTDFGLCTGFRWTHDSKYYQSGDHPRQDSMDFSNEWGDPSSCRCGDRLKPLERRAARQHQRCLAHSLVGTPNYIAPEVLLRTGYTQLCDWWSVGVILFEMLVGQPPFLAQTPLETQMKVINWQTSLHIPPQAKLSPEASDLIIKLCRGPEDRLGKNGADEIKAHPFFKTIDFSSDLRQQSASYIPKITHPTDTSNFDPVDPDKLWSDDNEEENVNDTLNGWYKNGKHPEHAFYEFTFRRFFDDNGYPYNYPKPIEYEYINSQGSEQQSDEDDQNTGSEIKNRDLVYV
Method: (§1) Evaluation of the inhibitory activity (calculation of kinase inhibitory rate) of the compound of the present invention against LATS1 and LATS2 (manufactured by Carna Biosciences) was performed. The activity was measured using the Kinase Assay method described below. The test concentration of the compound of the present invention was set such that the final concentration was 100 nM or 1000 nM.
(§2) As the analysis method of the data, the mean signal of the control well containing reaction components other than the compound of the present invention was set to 0% inhibition, the mean signal without enzyme addition was set to 100% inhibition, and the inhibition rate was calculated from the mean signal of 2 wells of each compound.
(§3) 2 μL of a compound of the present invention solution at 2.5-fold concentration, 1 μL of substrate at 5-fold concentration (SGKtide: NH2-CKKRNRRLSVA-COOH, manufactured by SignalChem), ATP (manufactured by Sigma-Aldrich), MgCl2 (manufactured by FUJIFILM Wako Pure Chemical Corporation) solution (final concentration 10 μM, 400 μM and 5 mM, respectively), and 2 μL of kinase solution at 2.5-fold concentration (final concentration of LATS1 or LATS2 5 μg/mL), each prepared with assay buffer (20 mM HEPES, 0.01% Triton X-100, 2 mM DTT, 50 μg/mL BSA, pH 7.5), were mixed in the wells of a polypropylene 384-well plate (manufactured by Greiner Bio-One, #784900) and reacted at room temperature for 5 hr. To the solution was added 5 μL detection solution [Fluorospark (registered trade mark) Kinase/ADP Multi-Assay Kit; manufactured by FUJIFILM Wako Pure Chemical Corporation], and the mixture was reacted at room temperature for 30 min. Successively, 5 μL of a reaction quenching liquid [Fluorospark (registered trade mark) Kinase/ADP Multi-Assay Kit; manufactured by FUJIFILM Wako Pure Chemical Corporation] was added to discontinue the reaction. Thereafter, the ADP concentration of the reaction solution was quantified by EnSpire (manufactured by PerkinElmer) to detect the kinase reaction.

[2] = molecular target: T2, LATS2 (Homo sapiens, UniProt Q9NRM7); experiment: Kinase inhibitory activity against LATS2 (ADP quantification); assay type: biochemical; conditions: ATP 400 μM, read-out: kinase inhibitory rate; for inhibition at 0.1 µM: final concentration 100 nM; for inhibition at 1 µM: final concentration 1000 nM
T2 construct: purchased Carna Biosciences
T2 sequence (Q9NRM7 1-1088): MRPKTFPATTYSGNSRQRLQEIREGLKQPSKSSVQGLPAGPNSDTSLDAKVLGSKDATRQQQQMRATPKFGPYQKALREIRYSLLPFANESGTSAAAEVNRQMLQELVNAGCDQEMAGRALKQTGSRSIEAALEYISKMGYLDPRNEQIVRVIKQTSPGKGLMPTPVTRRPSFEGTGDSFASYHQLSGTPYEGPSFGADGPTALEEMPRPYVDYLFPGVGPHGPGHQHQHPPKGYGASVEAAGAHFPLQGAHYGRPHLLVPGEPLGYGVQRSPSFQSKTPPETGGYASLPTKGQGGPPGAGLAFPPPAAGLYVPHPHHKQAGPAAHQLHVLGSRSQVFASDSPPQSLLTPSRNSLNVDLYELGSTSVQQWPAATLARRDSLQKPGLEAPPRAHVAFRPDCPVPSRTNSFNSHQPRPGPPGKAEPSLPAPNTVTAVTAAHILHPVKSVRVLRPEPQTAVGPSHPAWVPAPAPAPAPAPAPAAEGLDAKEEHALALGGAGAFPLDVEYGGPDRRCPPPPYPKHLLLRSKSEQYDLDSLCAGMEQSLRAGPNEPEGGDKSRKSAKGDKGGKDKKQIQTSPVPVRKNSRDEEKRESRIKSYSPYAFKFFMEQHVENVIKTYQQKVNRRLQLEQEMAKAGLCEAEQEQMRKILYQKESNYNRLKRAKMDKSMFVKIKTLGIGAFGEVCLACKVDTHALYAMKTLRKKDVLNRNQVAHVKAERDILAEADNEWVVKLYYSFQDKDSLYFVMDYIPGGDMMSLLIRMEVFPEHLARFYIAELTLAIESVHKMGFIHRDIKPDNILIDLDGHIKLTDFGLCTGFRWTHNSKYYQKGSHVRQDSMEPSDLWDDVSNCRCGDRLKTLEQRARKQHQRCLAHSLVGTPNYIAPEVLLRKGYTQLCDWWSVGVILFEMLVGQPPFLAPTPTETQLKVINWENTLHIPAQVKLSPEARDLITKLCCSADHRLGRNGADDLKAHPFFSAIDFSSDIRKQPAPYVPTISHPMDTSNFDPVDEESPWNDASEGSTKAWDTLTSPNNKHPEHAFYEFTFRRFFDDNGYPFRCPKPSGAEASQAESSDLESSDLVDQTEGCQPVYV
Method: as §1, §2, §3

[3] = tested on: YAP; experiment: YAP phosphorylation inhibitory action in SKOV3 (HTRF); assay type: cell-based, human; conditions: 10 μM, 1 hr, non-treatment 100%
Method: Human ovarian cancer cell line SKOV3 (manufactured by DS Pharma Biomedical Co., Ltd.) was precultured using a 15% FBS-containing McCoy's 5a medium (manufactured by Sigma-Aldrich) (single layer culture). The above-mentioned cells in the logarithmic growth phase were washed with PBS. A 0.25% (w/v) trypsin-1 mmol/L ethylenediaminetetraacetic acid (EDTA) solution (manufactured by FUJIFILM Wako Pure Chemical Corporation) was added and the adherent cells were incubated at 37° C. for 3 min and detached. The above-mentioned medium was added, and the cells were centrifuged and resuspended in the same medium.
According to the method of patent document 1 (WO 2014/017513), a composition of 10% FBS-containing DMEM medium (Phenol-red free, manufactured by FUJIFILM Wako Pure Chemical Corporation) containing 0.015% (w/v) deacylated gellan gum (KELCOGEL CG-LA, manufactured by SANSHO Co., Ltd.) was prepared using FCeM-series Preparation Kit (manufactured by FUJIFILM Wako Pure Chemical Corporation). Then, various cells prepared above were suspended in the above-mentioned medium composition (3D culture conditions) added with deacylated gellan gum or a medium without the addition (2D culture conditions), and seeded on a 50 μL/well (manufactured by Corning Incorporated, a 96 well flat bottom plate, #3585, 2D culture conditions) or 25 μL/well (manufactured by Corning Incorporated, 96 well low adhesion flat bottom plate, #3474) at 100000 cells/well. The plate was allowed to stand at 37° C. in a 5% CO2 incubator, and the compound of the present invention diluted with the medium at 2 or 6 times the final concentration, DMSO, or the medium alone was added to the plate 3 hr after the seeding at 50 μL/well (2D culture conditions) or 5 μL/well (3D culture conditions) to make the final concentration of each compound 10 μM. After culture at 37° C. in a 5% CO2 incubator for 1 hr, the supernatant was aspirated, supplemented Lysis buffer (1-fold concentration, manufactured by Cisbio, YAP-total kit or YAP phospho-S27 kit) (50 μL) was added under 2D culture conditions, and supplemented Lysys buffer (4-fold concentration) (10 μL) was added to the culture supernatant under 3D conditions, and the mixture was stirred by a plate shaker for 30 min. Thereafter, the plate was centrifuged, 16 μL of the supernatant was transferred to a 384-well white plate (Corning, #4512), and each antibody solution (pYAP d2 antibody or Total-YAP d2 antibody, and pYAP Cryptate antibody or Total-YAP Cryptate antibody) included in the kit was added at 4 μL/well in total, and the mixture was allowed to stand at room temperature overnight. As a blank control, pYAP Cryptate antibody or Total-YAP Cryptate antibody alone was added to cells free of stimulation with compound and the mixture was treated in the same manner. The next day, the wavelengths at 665 nm and 615′ nm were measured in the HTRF mode of EnVision (manufactured by PerkinElmer).
The obtained signal was calculated as follows. Ratio=signal (665 nm)/signal (615 nm)×10000, ΔR=Signal(Ratio)−Background fluorescence, and the relative phosphorylated YAP amount or total YAP amount for each compound when ΔR of the compound non-addition group (non-treatment) is 100% is shown in Tables 7 and 8 (2D culture), and Tables 9 and 10 (3D culture). From the results, it was shown that the compound of the present zo invention has a YAP phosphorylation inhibitory action under both 2D and 3D culture conditions.

| SMILES | inhibition at 0.1 µM [1] [%] | inhibition at 1 µM [1] [%] | inhibition at 0.1 µM [2] [%] | inhibition at 1 µM [2] [%] | phosphorylated YAP amount (%) ([3]; 2D culture conditions) | total YAP amount (%) ([3]; 2D culture conditions) | phosphorylated YAP amount (%) ([3]; 3D culture conditions) | total YAP amount (%) ([3]; 3D culture conditions) |
| --- | --- | --- | --- | --- | --- | --- | --- | --- |
| CC/C(=N\NC(=O)CNc1ccccn1)c1ccc(O)c(C)c1O [A-001, (E)-N′-(1-(2,4-dihydroxy-3-methylphenyl)propylidene)-2-(pyridin-2-ylamino)acetohydrazide] | ≥ 40 | ≥ 40 | ≥ 40 | ≥ 40 |  |  |  |  |
| CC/C(=N\NC(=O)CNc1cccnc1)c1ccc(O)c(C)c1O [A-002] |  |  |  |  | 50 | 85 | 78 | 100 |
| CC/C(=N\NC(=O)C(CC)Nc1cccnc1)c1ccc(O)c(C)c1O (centres unmarked) [A-005] |  |  |  |  | 27 | 94 | 30 | 102 |
| CC/C(=N\NC(=O)[C@@H](C)Nc1cncc(F)c1)c1ccc(O)c(C)c1O [A-007R] |  |  |  |  | 8 | 98 | 15 | 108 |
| CC/C(=N\NC(=O)[C@@H](C)Nc1ccc(F)nc1)c1ccc(O)c(C)c1O [A-010] |  |  |  |  | 11 | 94 | 20 | 114 |
| CC/C(=N\NC(=O)[C@@H](C)Nc1cncc(Cl)c1)c1ccc(O)c(C)c1O [A-011] |  |  |  |  | 46 | 91 | 55 | 98 |
| CC/C(=N\NC(=O)[C@@H](C)Nc1ccc(Cl)nc1)c1ccc(O)c(C)c1O [A-012] |  |  |  |  | 19 | 87 | 23 | 103 |
| CC/C(=N\NC(=O)[C@@H](C)Nc1cncc(C(F)(F)F)c1)c1ccc(O)c(C)c1O [A-013] |  |  |  |  | 42 | 91 | 49 | 96 |
| CC/C(=N\NC(=O)[C@@H](C)Nc1cncnc1)c1ccc(O)c(C)c1O [A-017, (R,E)-N′-[1-(2,4-dihydroxy-3-methylphenyl)propylidene]-2-(pyrimidin-5-ylamino)propanehydrazide] | ≥ 40 | ≥ 40 | ≥ 40 | ≥ 40 |  |  |  |  |
| CC/C(=N\NC(=O)[C@@H](C)Nc1ccc2cccnc2c1)c1ccc(O)c(C)c1O [A-019, (R,E)-N′-[1-(2,4-dihydroxy-3-methylphenyl)propylidene]-2-(quinolin-7-ylamino)propanehydrazide] | ≥ 40 | ≥ 40 |  | ≥ 40 |  |  |  |  |
| CC/C(=N\NC(=O)NCc1cccnc1)c1ccc(O)c(C)c1O [B-001, (E)-2-(1-(2,4-dihydroxy-3-methylphenyl)propylidene)-N-(pyridin-3-ylmethyl)hydrazine-1-carboxamide] |  | ≥ 40 |  | ≥ 40 |  |  |  |  |
